Results taken from ChEMBL document CHEMBL1156293, “Synthesis of a novel tricyclic 1,2,3,4,4a,5,6,10b-octahydro-1,10-phenanthroline ring system and CXCR4 antagonists with potent activity against HIV-1” (Bioorg Med Chem Lett, 2010).

Columns and labels:
[1] = tested on: Human immunodeficiency virus 1; assay: Antiviral activity against HIV1 3B in human HOS cells expressing human […]/pHIV-LTR-luciferase assessed as blockade of viral infection into cells; type: functional, organism-based; conditions: Human immunodeficiency virus 1, 3B
[2] = Cytotoxicity against human HOS cells; type: cell-based
[3] = Volume of distribution at steady state in rat at 1 mg/kg, iv; type: ADME, organism-based; parameters: dose 1 mg/kg, route intravenous; conditions: in vivo, read-out: Vdss
[4] = Volume of distribution at steady state in dog at 1 mg/kg, iv; type: ADME, organism-based, Canis lupus familiaris; parameters: dose 1 mg/kg, route intravenous; conditions: in vivo, read-out: Vdss
[5] = Half life in rat at 3 mg/kg, po; type: ADME, organism-based; parameters: dose 3 mg/kg, route oral; conditions: in vivo
[6] = Half life in dog at 3 mg/kg, po; type: ADME, organism-based, Canis lupus familiaris; parameters: dose 3 mg/kg, route oral; conditions: in vivo
Rattus norvegicus = assay: Dose normalized AUC in rat at 3 mg/kg, po; type: ADME, organism-based; parameters: dose 3 mg/kg, route oral; conditions: in vivo
Canis familiaris = assay: Dose normalized AUC in dog at 3 mg/kg, po; type: ADME, organism-based, Canis lupus familiaris; parameters: dose 3 mg/kg, route oral; conditions: in vivo

Row | Compound | IC50 [1] [µM] | CC50 [2] [µM] | other results
1 | CN1CCC(N(C)c2cccc3nc(CN4CCC[C@H]5CCc6cccnc6[C@H]54)cn23)CC1 | 0.038 | 1.3 | –
2 | CN1CCN(c2cccc3nc(CN(C)[C@H]4CCCc5cccnc54)cn23)CC1 | – | – | Vd [3]: 5.5 L/kg; Vd [4]: 7.6 L/kg; half-life [5]: 4.9 h; half-life [6]: 8.5 h; AUC (Rattus norvegicus): 100 ng·h/mL/(mg/kg); AUC (Canis familiaris): 160 ng·h/mL/(mg/kg)
3 | CN(C)CCCn1c(CN2CCC[C@@H]3CCc4cccnc4[C@@H]32)nc2ccccc21 | 0.53 | 4.2 | –
4 | CN1CCN(c2cccc3nc(CN4CCC[C@@H]5CCc6cccnc6[C@@H]54)cn23)CC1 | 0.1 | 8.5 | –
5 | CN(C)CCCn1c(CN2CCC[C@@H]3CCc4cccnc4[C@H]32)nc2ccccc21 | 0.14 | 3.5 | –
6 | CN(C)C1CCN(c2cccc3nc(CN4CCC[C@H]5CCc6cccnc6[C@H]54)cn23)CC1 | 0.015 | 3.85 | –
7 | CN1CCC(N(C)c2cccc3nc(CN4CCC[C@H]5CCc6cccnc6[C@H]54)cn23)C1 (some centres undefined) | 0.009 | 1.57 | –

The remaining compounds from weak to strong by IC50 [1], led by results:

Row | IC50 [1] [µM] | Compound | CC50 [2] [µM] | other results
8 | 1.2 | c1cnc2c(c1)CC[C@@H]1CCCN(Cc3cn4c(N5CCOCC5)cccc4n3)[C@H]21 | 6.6 | –
9 | 0.33 | CN(C)CCCn1c(CN2CCC[C@H]3CCc4cccnc4[C@@H]32)nc2ccccc21 | 3.7 | –
10 | 0.05 | CN1CCN(c2cccc3nc(CN4CCC[C@@H]5CCc6cccnc6[C@H]54)cn23)CC1 | 9.9 | –
11 | 0.035 | CN(C)CCCn1c(CN2CCC[C@H]3CCc4cccnc4[C@H]32)nc2ccccc21 | 6 | –
12 | 0.032 | CN1CCN(c2cccc3nc(CN4CCCC5CCc6cccnc6C54)cn23)CC1 (racemic) | 9.6 | –
13 | 0.021 | CN(C)[C@@H]1CCN(c2cccc3nc(CN4CCC[C@H]5CCc6cccnc6[C@H]54)cn23)C1 | 1.6 | –
14 | 0.005 | CN(C)CCN(C)c1cccc2nc(CN3CCC[C@H]4CCc5cccnc5[C@H]43)cn12 | 1.45 | –
15 | 0.002 | c1cnc2c(c1)CC[C@@H]1CCCN(Cc3cn4c(N5CCN6CCCC6C5)cccc4n3)[C@H]21 (some centres undefined) | 2.98 | –
